For 15 compounds, IC50 results are on record in patent US20250215030A1, “STAT MODULATORS AND USES THEREOF” (Recludix Pharma, Inc., priority 2022, published 2025).

Test [1] concerns the target T1, Recombinant STAT3 protein (STAT3(G127-I722)) (Homo sapiens, UniProt P40763).
T1 construct: STAT3(G127-I722)
As to the kind of experiment: STAT3 Fluorescence Polarization (FP) Assay. It counts as binding. The note with it: STAT3(G127-I722) 25 nM, probe 5-FAM-GpYLPQTV-NH2 2 nM, 45-minute incubation. As to the method: STAT3 Fluorescence Polarization (FP) Assay
An FP assay was developed to determine IC50 values for test substances. Recombinant STAT3 protein (STAT3(G127-I722)) at 25 nM was combined with a fluorescently labeled, phosphotyrosine peptide probe (5-FAM-GpYLPQTV-NH2) at 2 nM in FP buffer (10 mM HEPES pH 7.4, 50 mM NaCl, 1 mM EDTA, 0.05% Tween 20, 2 mM DTT). 50 μL of STAT3-probe mixture was added to serial diluted compounds in black, 96-well plates (Greiner BioOne 655076) to a final concentration of 1% DMSO. Reaction components were mixed, and FP was measured after 45-minute incubation at room temperature using a Tecan Spark multimode plate reader. FP signal (mP) was plotted against the log concentration of the test substances and IC50 values were calculated by nonlinear regression analysis using GraphPad Prism software. For STAT3 FP assay, A=≤100 nM; B=>100-1000 nM; C=>1-10 μM; and D=>10 μM.
In general terms: In fluorescence polarisation assays a small probe gives low polarisation when free and higher when bound to something large.

In test [2] the target is T2, Recombinant STAT6 protein (STAT6(W123-T658)) (Homo sapiens, UniProt P42226).
T2 construct: STAT6(W123-T658)
T2 sequence (P42226 123-658): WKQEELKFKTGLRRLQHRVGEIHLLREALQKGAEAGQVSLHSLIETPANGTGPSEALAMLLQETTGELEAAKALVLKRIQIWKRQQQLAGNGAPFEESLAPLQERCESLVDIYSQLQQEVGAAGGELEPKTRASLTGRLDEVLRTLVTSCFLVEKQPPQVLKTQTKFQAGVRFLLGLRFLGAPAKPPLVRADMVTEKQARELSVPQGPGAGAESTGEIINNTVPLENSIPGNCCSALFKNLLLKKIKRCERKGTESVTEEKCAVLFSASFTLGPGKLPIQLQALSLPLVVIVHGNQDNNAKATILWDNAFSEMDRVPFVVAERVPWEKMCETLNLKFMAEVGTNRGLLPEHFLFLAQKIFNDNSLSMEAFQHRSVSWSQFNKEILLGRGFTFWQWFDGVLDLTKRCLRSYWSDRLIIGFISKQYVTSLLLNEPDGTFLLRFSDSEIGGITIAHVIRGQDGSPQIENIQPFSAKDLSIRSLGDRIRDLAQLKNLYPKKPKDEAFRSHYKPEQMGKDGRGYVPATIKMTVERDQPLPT
The experiment in a line: STAT6 Fluorescence Polarization (FP) Assay. It counts as binding. The settings on record: STAT6(W123-T658) 250 nM, probe 5-FAM-ApYKPFQDLI-NH2 2 nM, 45-minute incubation. As to the method:
STAT6 Fluorescence Polarization (FP) Assay
An FP assay was developed to determine IC50 values for test substances. Recombinant STAT6 protein (STAT6(W123-T658)) at 250 nM was combined with a fluorescently labeled, phosphotyrosine peptide probe (5-FAM-ApYKPFQDLI-NH2) at 2 nM in FP buffer (10 mM HEPES pH 7.4, 50 mM NaCl, 1 mM EDTA, 0.05% Tween 20, 2 mM DTT). 50 μL of STAT6-probe mixture was added to serial diluted compounds in black, 96-well plates (Greiner BioOne 655076) to a final concentration of 1% DMSO. Reaction components were mixed, and FP was measured after 45-minute incubation at room temperature using a Tecan Spark multimode plate reader. FP signal (mP) was plotted against the log concentration of the test substances and IC50 values were calculated by nonlinear regression analysis using GraphPad Prism software. For STAT6 FP assay, A=≤300 nM; B=>300-3000 nM; C=>3-30 μM; and D=>30 μM.

T1 sequence (P40763 127-722, species assumed): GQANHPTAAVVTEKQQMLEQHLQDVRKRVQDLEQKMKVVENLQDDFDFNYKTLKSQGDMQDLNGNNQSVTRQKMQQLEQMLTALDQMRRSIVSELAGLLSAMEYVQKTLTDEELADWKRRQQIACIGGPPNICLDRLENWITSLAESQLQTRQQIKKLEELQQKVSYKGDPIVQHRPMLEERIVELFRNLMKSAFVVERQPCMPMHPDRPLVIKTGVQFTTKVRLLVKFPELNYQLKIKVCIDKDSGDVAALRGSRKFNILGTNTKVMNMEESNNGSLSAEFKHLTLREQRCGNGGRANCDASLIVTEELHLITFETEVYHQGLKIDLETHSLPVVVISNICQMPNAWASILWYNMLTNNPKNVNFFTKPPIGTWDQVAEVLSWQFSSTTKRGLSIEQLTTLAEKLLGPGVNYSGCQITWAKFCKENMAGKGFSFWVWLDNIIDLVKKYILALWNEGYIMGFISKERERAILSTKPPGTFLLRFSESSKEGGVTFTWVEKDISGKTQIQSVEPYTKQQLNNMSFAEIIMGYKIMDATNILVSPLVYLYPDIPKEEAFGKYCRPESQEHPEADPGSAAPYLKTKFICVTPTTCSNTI

Turning to `Cc1ccncc1C1CN(C(=O)[C@@H]2CC[C@@H]3C[C@H]4C[C@H]4C[C@H](NC(=O)c4cc5cc(CP(=O)(O)O)ccc5s4)C(=O)N32)C1` [Example 277, ((2-(((3S,6S,7aS,8aR,9aR)-3-(3-(4-methylpyridin-3-yl)azetidine-1-carbonyl)-5-oxodecahydro-1H-cyclopropa[d]pyrrolo[1,2-a]azocin-6-yl)carbamoyl)benzo[b]thiophen-5-yl)methyl)phosphonic acid], the IC50 (in general, the point on the concentration scale where inhibition reaches its midpoint) in test [1] is 0.1 to 1 µM; in test [2], > 30 µM.

Turning to `O=C(N[C@H]1C[C@H]2C[C@H]2C[C@H]2CC[C@@H](C(=O)N3CC(n4ccnc4)C3)N2C1=O)c1ccc2ccc(C(F)(F)P(=O)(O)O)cc2c1` [Compound 59, ((7-(((3S,6S,7aR,8aS,9aR)-3-(3-(1H-imidazol-1-yl)azetidine-1-carbonyl)-5-oxodecahydro-1H-cyclopropa[d]pyrrolo[1,2-a]azocin-6-yl)carbamoyl)naphthalen-2-yl)difluoromethyl)phosphonic acid], the IC50 in test [1] was < 0.1 µM; in test [2], 3 to 30 µM.

As for `O=C(N[C@H]1C[C@@H]2C[C@@H]2C[C@H]2CC[C@@H](C(=O)N[C@@H]3CCN(C4COC4)C3)N2C1=O)c1cc2cc(C(F)(F)P(=O)(O)O)ccc2s1` [Compound 48, (difluoro(2-(((3S,6S,7aS,8aR,9aR)-3-(((R)-1-(oxetan-3-yl)pyrrolidin-3-yl)carbamoyl)-5-oxodecahydro-1H-cyclopropa[d]pyrrolo[1,2-a]azocin-6-yl)carbamoyl)benzo[b]thiophen-5-yl)methyl)phosphonic acid], the IC50 in test [1] is 0.1 to 1 µM; in test [2], 3 to 30 µM.

For `N#C[C@@H]1CN(C(=O)[C@@H]2CC[C@@H]3[C@H]4C[C@H]4C[C@H](NC(=O)c4cc5cc(C(F)(F)P(=O)(O)O)ccc5s4)C(=O)N32)C[C@H]1c1ccccc1` (single isomer, unassigned) [Compound 66, ((2-(((3S,6S,7aS,8aS,8bR)-3-((3S,4R or 3R,4S)-3-cyano-4-phenylpyrrolidine-1-carbonyl)-5-oxodecahydrocyclopropa[c]pyrrolo[1,2-a]azepin-6-yl)carbamoyl)benzo[b]thiophen-5-yl)difluoromethyl)phosphonic acid], the IC50 in test [1] was 1 to 10 µM; in test [2] it was ≤ 0.3 µM.

`O=C(N[C@H]1C[C@@H]2C[C@@H]2C[C@H]2CC[C@@H](C(=O)N3CCCOc4ccccc43)N2C1=O)c1cc2cc(C(F)P(=O)(O)O)ccc2s1` (stereo partly drawn) [Example 373, (fluoro(2-(((3S,6S,7aS,8aR,9aR)-5-oxo-3-(2,3,4,5-tetrahydrobenzo[b][1,4]oxazepine-5-carbonyl)decahydro-1H-cyclopropa[d]pyrrolo[1,2-a]azocin-6-yl)carbamoyl)benzo[b]thiophen-5-yl)methyl)phosphonic acid]: the values for the IC50 in test [1] and in test [2] were 1 to 10 µM and 3 to 30 µM, respectively.

Consider `COc1ccncc1C1CN(C(=O)[C@@H]2CC[C@@H]3C[C@@H]4C[C@@H]4C[C@H](NC(=O)c4cc5cc([C@H](F)P(=O)(O)O)ccc5s4)C(=O)N32)C1` (single isomer, unassigned) [Example 353], for which the IC50 was < 0.1 µM in test [1] and 3 to 30 µM in test [2].

`N#CC1(c2ccccn2)CN(C(=O)[C@@H]2CC[C@@H]3C[C@@H]4C[C@@H]4C[C@H](NC(=O)c4cc5cc([C@H](F)P(=O)(O)O)ccc5s4)C(=O)N32)C1` (single isomer, unassigned) [Example 355]: the IC50 was < 0.1 µM in test [1] and 0.3 to 3 µM in test [2].

Regarding `O=C(N[C@H]1C[C@H]2C[C@H]2C[C@H]2CC[C@@H](C(=O)N3CC(c4ccccn4)C3)N2C1=O)c1cc2cc(CP(=O)(O)O)ccc2s1` [Compound 23, ((2-(((3S,6S,7aR,8aS,9aR)-5-oxo-3-(3-(pyridin-2-yl)azetidine-1-carbonyl)decahydro-1H-cyclopropa[d]pyrrolo[1,2-a]azocin-6-yl)carbamoyl)benzo[b]thiophen-5-yl)methyl)phosphonic acid], the IC50 in test [1] is 0.1 to 1 µM; in test [2], > 30 µM.

Consider `CN1CCN(c2ccncc2C2CN(C(=O)[C@@H]3CC[C@@H]4C[C@H]5C[C@H]5C[C@H](NC(=O)c5cc6cc([C@@H](F)P(=O)(O)O)ccc6s5)C(=O)N43)C2)CC1` (single isomer, unassigned) [Example 404], for which the concentration for half-maximal inhibition (IC50) in test [1] is < 0.1 µM; in test [2], > 30 µM.

For `N#CC1(c2ccccn2)CN(C(=O)[C@@H]2CC[C@@H]3C[C@@H]4C[C@@H]4C[C@H](NC(=O)c4cc5cc(C(F)(F)P(=O)(O)O)ccc5s4)C(=O)N32)C1` [Compound 70, ((2-(((3S,6S,7aR,8aS,9aR)-3-(3-cyano-3-(pyridin-2-yl)azetidine-1-carbonyl)-5-oxodecahydro-1H-cyclopropa[d]pyrrolo[1,2-a]azocin-6-yl)carbamoyl)benzo[b]thiophen-5-yl)difluoromethyl)phosphonic acid], the IC50 in test [1] was < 0.1 µM; in test [2] it was 0.3 to 3 µM.

Consider `O=C(N[C@H]1C[C@@H]2C[C@@H]2C[C@H]2CC[C@@H](C(=O)N3CC4(CN(C(=O)Cc5ccccc5)C4)C3)N2C1=O)c1cc2cc(C(F)(F)P(=O)(O)O)ccc2s1` [Compound 41, (difluoro(2-(((3S,6S,7aS,8aR,9aR)-5-oxo-3-(6-(2-phenylacetyl)-2,6-diazaspiro[3.3]heptane-2-carbonyl)decahydro-1H-cyclopropa[d]pyrrolo[1,2-a]azocin-6-yl)carbamoyl)benzo[b]thiophen-5-yl)methyl)phosphonic acid], for which the IC50 is < 0.1 µM in test [1] and 0.3 to 3 µM in test [2].

As for `O=C(N[C@H]1C[C@@H]2C[C@@H]2C[C@H]2CC[C@@H](C(=O)N[C@@H]3CCN(c4ccccn4)C3)N2C1=O)c1cc2cc(C(F)(F)P(=O)(O)O)ccc2s1` [Compound 39, (difluoro(2-(((3S,6S,7aS,8aR,9aR)-5-oxo-3-(((R)-1-(pyridin-2-yl)pyrrolidin-3-yl)carbamoyl)decahydro-1H-cyclopropa[d]pyrrolo[1,2-a]azocin-6-yl)carbamoyl)benzo[b]thiophen-5-yl)methyl)phosphonic acid], the concentration for half-maximal inhibition (IC50) in test [1] was < 0.1 µM; in test [2] it was 3 to 30 µM.

On to `O=C(N[C@H]1C[C@H]2C[C@H]2C[C@H]2CC[C@@H](C(=O)N3CC(n4ccnc4)C3)N2C1=O)c1cc2cc(C(F)(F)P(=O)(O)O)ccc2s1` [Compound 107, ((2-(((3S,6S,7aR,8aS,9aR)-3-(3-(1H-imidazol-1-yl)azetidine-1-carbonyl)-5-oxodecahydro-1H-cyclopropa[d]pyrrolo[1,2-a]azocin-6-yl)carbamoyl)benzo[b]thiophen-5-yl)difluoromethyl)phosphonic acid], for which the IC50 in test [1] was < 0.1 µM; in test [2], 3 to 30 µM.

`Cn1cc(OC2CN(C(=O)[C@@H]3CC[C@@H]4C[C@H]5C[C@H]5C[C@H](NC(=O)c5cc6cc(CP(=O)(O)O)ccc6s5)C(=O)N43)C2)cn1` [Example 335, ((2-(((3S,6S,7aS,8aR,9aR)-3-(3-((1-methyl-1H-pyrazol-4-yl)oxy)azetidine-1-carbonyl)-5-oxodecahydro-1H-cyclopropa[d]pyrrolo[1,2-a]azocin-6-yl)carbamoyl)benzo[b]thiophen-5-yl)methyl)phosphonic acid]: the IC50 in test [1] is 1 to 10 µM; in test [2], > 30 µM.

Consider `O=C(N[C@H]1C[C@H]2[C@@H](C[C@H]3CC[C@@H](C(=O)N4CC(C(=O)N5CCOCC5)C4)N3C1=O)C2(F)F)c1cc2cc(C(F)(F)P(=O)(O)O)ccc2s1` [Compound 30, ((2-(((3S,6S,7aS,8aR,9aR)-8,8-difluoro-3-(3-(morpholine-4-carbonyl)azetidine-1-carbonyl)-5-oxodecahydro-1H-cyclopropa[d]pyrrolo[1,2-a]azocin-6-yl)carbamoyl)benzo[b]thiophen-5-yl)difluoromethyl)phosphonic acid], for which the IC50 in test [1] is < 0.1 µM; in test [2] it was 3 to 30 µM.
